Measured values as given in the supplement of paper PMC10307832.

What was measured:
Experiment in all cases: relative viability (nuclei count vs DMSO), 5 days (fraction); higher = more cells survive
Cediranib + Bortezomib = compound: COc1cc2c(Oc3ccc4[nH]c(C)cc4c3F)ncnc2cc1OCCCN1CCCC1 [Cediranib] + CC(C)C[C@H](NC(=O)[C@H](Cc1ccccc1)NC(=O)c1cnccn1)B(O)O [Bortezomib] (partner 0.002 µM)
How it was run: (§1)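 Lung cancer cell lines in 1536-well plates were dosed by pin tool the day after seeding, either with one drug alone or with a fixed anchor-drug dose plus five library-drug doses (not always all listed) in √10 steps. After 5 days, cells were fixed and their nuclei stained in one step (final 0.05% Triton X-100, 1% formaldehyde, 1 ug/ml Hoechst), then counted on 4× images. Relative viability is the nuclei count in treated wells divided by that in vehicle wells. Values are medians of duplicate plates.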

[1] = compound: O=C(C[C@H]1NCCC[C@@H]1O)Cn1cnc2cc(Br)c(Cl)cc2c1=O (racemic) [Halofuginone] + CS(=O)(=O)N1CCN(Cc2cc3nc(-c4cccc5[nH]ncc45)nc(N4CCOCC4)c3s2)CC1 [Pictilisib] (partner 1 µM)
How it was run: as §1

Cediranib + Navitoclax = compound: COc1cc2c(Oc3ccc4[nH]c(C)cc4c3F)ncnc2cc1OCCCN1CCCC1 [Cediranib] + CC1(C)CCC(c2ccc(Cl)cc2)=C(CN2CCN(c3ccc(C(=O)NS(=O)(=O)c4ccc(N[C@H](CCN5CCOCC5)CSc5ccccc5)c(S(=O)(=O)C(F)(F)F)c4)cc3)CC2)C1 [Navitoclax] (partner 0.5 µM)
How it was run: as §1

Decitabine + Tozasertib = compound: Nc1ncn([C@H]2C[C@H](O)[C@@H](CO)O2)c(=O)n1 [Decitabine] + Cc1cc(Nc2cc(N3CCN(C)CC3)nc(Sc3ccc(NC(=O)C4CC4)cc3)n2)n[nH]1 [Tozasertib] (partner 0.1 µM)
How it was run: as §1

Cell Line | relative viability (Cediranib + Bortezomib; first compound 0.04 µM) | relative viability (Cediranib + Bortezomib; first compound 0.1265 µM) | relative viability (Cediranib + Bortezomib; first compound 0.4 µM) | relative viability (Cediranib + Bortezomib; first compound 1.265 µM) | relative viability (Cediranib + Bortezomib; first compound 4 µM) | relative viability ([1]; first compound 0.001 µM) | relative viability ([1]; first compound 0.003162 µM) | relative viability ([1]; first compound 0.01 µM) | relative viability ([1]; first compound 0.03162 µM) | relative viability ([1]; first compound 0.1 µM) | relative viability (Cediranib + Navitoclax; first compound 0.04 µM) | relative viability (Cediranib + Navitoclax; first compound 0.1265 µM) | relative viability (Cediranib + Navitoclax; first compound 0.4 µM) | relative viability (Cediranib + Navitoclax; first compound 1.265 µM) | relative viability (Cediranib + Navitoclax; first compound 4 µM) | relative viability (Decitabine + Tozasertib; first compound 0.04 µM) | relative viability (Decitabine + Tozasertib; first compound 0.1265 µM) | relative viability (Decitabine + Tozasertib; first compound 0.4 µM) | relative viability (Decitabine + Tozasertib; first compound 1.265 µM) | relative viability (Decitabine + Tozasertib; first compound 4 µM)
NCI-H727 | 0.807 | 0.55 | 0.789 | 0.64 | 0.747 | 0.428 | 0.444 | 0.359 | 0.421 | 0.194 | 0.404 | 0.409 | 0.38 | 0.532 | 0.583 | 0.587 | 0.445 | 0.518 | 0.754 | 0.747
NCI-H358 | – | – | – | – | – | 0.364 | 0.351 | 0.359 | 0.245 | 0.196 | – | – | – | – | – | 0.121 | 0.0951 | 0.0825 | 0.1 | 0.0948
NCI-H1437 | 0.55 | 0.407 | 0.554 | 0.565 | 0.673 | 0.429 | 0.536 | 0.414 | 0.402 | 0.24 | 1.14 | 1.17 | 1.06 | 1.07 | 1.13 | 0.358 | 0.363 | 0.281 | 0.201 | 0.17
NCI-H441 | 0.304 | 0.688 | – | 0.498 | 0.934 | 0.482 | 0.466 | 0.489 | 0.415 | 0.385 | 0.466 | 0.63 | – | 0.763 | 0.573 | 0.296 | 0.269 | 0.208 | 0.234 | 0.317
EMC-BAC-2 | 1.06 | 0.69 | 1.03 | 1.02 | 1.07 | 0.491 | 0.55 | 0.489 | 0.54 | 0.46 | 1.3 | 1.16 | 1.12 | 1.17 | 1.06 | 0.274 | 0.266 | 0.27 | 0.251 | 0.271
NCI-H647 | 1.1 | 1.02 | 0.845 | 0.728 | 1.16 | 0.543 | 0.425 | 0.459 | 0.418 | 0.33 | 1.11 | – | 1.16 | 1.12 | 1.14 | 0.262 | 0.192 | 0.172 | 0.0834 | 0.105
CAL-12T | 0.88 | – | 0.931 | 1.07 | 1.12 | 0.691 | 0.277 | – | 0.468 | 0.323 | 1.33 | 1.33 | 1.37 | 1.27 | 1.34 | 0.292 | 0.268 | – | 0.21 | 0.219
NCI-H1792 | 1.07 | 1.14 | 0.953 | 0.955 | 0.762 | 0.336 | 0.228 | 0.3 | 0.34 | 0.243 | 0.446 | 0.442 | 0.588 | 0.668 | 0.393 | – | – | – | – | –
H3255 | 0.808 | 0.842 | 0.776 | 0.731 | 0.814 | 0.472 | 0.482 | 0.437 | 0.394 | 0.447 | 0.673 | 0.429 | 0.447 | 0.453 | 0.376 | – | 0.633 | 0.524 | 0.506 | 0.431
HCC-78 | 0.51 | 0.576 | 0.504 | 0.533 | 0.601 | 0.216 | 0.193 | 0.206 | 0.21 | 0.221 | 0.934 | 0.824 | 0.764 | 0.762 | 0.758 | 0.443 | 0.488 | 0.369 | 0.38 | 0.291
EBC-1 | 0.702 | 0.628 | 0.528 | 0.687 | 0.687 | 0.441 | 0.31 | 0.263 | 0.195 | 0.101 | 0.388 | 0.441 | 0.37 | 0.52 | 0.455 | – | – | – | – | –
NCI-H2405 | 1.05 | 0.475 | 0.982 | 0.894 | 0.983 | 0.522 | 0.504 | 0.512 | 0.478 | 0.421 | 0.766 | 1.01 | 0.79 | 1.11 | 0.838 | 0.521 | 0.598 | 0.526 | 0.388 | 0.337
A549 | – | – | – | – | – | 0.569 | 0.547 | 0.53 | 0.347 | 0.0767 | 1.29 | 1.34 | 1.23 | 1.25 | 1.24 | – | – | – | – | –
NCI-H3122 | 0.996 | 0.967 | 1.01 | 1.06 | 1 | 0.58 | 0.581 | 0.538 | 0.67 | 0.494 | 1.05 | 1.03 | 1.05 | 0.998 | 1.02 | 0.328 | 0.369 | 0.118 | – | 0.246
NCI-H1563 | 0.912 | 0.794 | 0.885 | 0.796 | 0.889 | 0.671 | 0.644 | 0.685 | 0.588 | 0.575 | – | – | – | – | – | – | – | – | – | –
HCC-44 | 0.825 | – | 0.873 | 0.932 | 0.975 | 0.545 | 0.605 | 0.592 | 0.67 | 0.399 | 0.972 | – | 1.01 | 0.965 | 1.11 | – | 1.01 | 0.174 | 0.457 | 0.382
PC-3 [JPC-3] | 0.844 | 0.829 | 0.844 | 0.924 | 0.809 | 0.703 | 0.78 | 0.699 | 0.772 | 0.769 | 0.715 | 0.705 | 0.735 | 0.849 | 0.801 | 0.593 | 0.59 | 0.459 | 0.448 | 0.404
NCI-H1993 | 1.07 | 1.32 | 1.08 | 1.07 | 1.05 | 0.788 | 0.749 | 0.891 | 0.807 | 0.803 | 1.05 | 0.935 | 0.981 | 0.733 | 1.09 | 0.682 | 0.591 | 0.683 | 0.568 | 0.553
